Assays:
[1] = tested on: TRPV4EC channels; experiment: TRPV4 sparklet activity in endothelium of small PAs after lung IR (in presence of CPA); format: cell-based, mice
Description: Murine lung IR model: A well-established left lung IRI model involving temporary in vivo ligation of the left hilum (pulmonary artery, vein, and airway) was used.^6 Briefly, mice were anesthetized with inhaled isoflurane, intubated, ventilated with room air at 150 strokes/min with a tidal volume of […] (Harvard Apparatus Co, South Natick, MA), and heparinized (20 U/kg: Hospira Inc, Lake Forest, IL). An anterolateral thoracotomy was performed through the fourth intercostal space to expose the left hilum. A 6-0 Prolene suture (Ethicon. Somerville, NJ) was passed around the left hilum, and the suture ends were passed through a 5-mm length of polyethylene (PE)-50 tubing. A surgical clip was used to fashion a Rummel tourniquet to provide temporary occlusion of the left hilar structures. The thoracotomy was closed, anesthesia was weaned, and analgesia was administered (intraperitoneal buprenorphine. 0.2 mg/kg). Animals recovered in their cages during the 1-hour ischemic period, after which they were anesthetized again and intubated, the Rummel tourniquet was removed, and the thoracotomy was closed. Animals were again extubated, recovered in their cage, and monitored during the 2-hour reperfusion period. […]
(§1) Ca^2+ imaging in Pas: Ca^2+ imaging in small Pas was performed as previously described.8 Fourth-order, small (~50 μm diameter) Pas (see FIG. 1B) were dissected from left lungs in cold HEPES-buffered physiological salt solution (HEPES-PSS; 10 mM HEPES, 134 mM NaCl, 6 mM KCl, 1 mM MgCl2 hexahydrate, 2 mM CaCl2) dihydrate, and 7 mM dextrose; pH adjusted to 7.4 using 1 M NaOH). […] Fluo-4 was excited using a 488-nm solid-state laser, and emitted fluorescence was captured using a 525/36-nm band-pass filter. […] Baseline Ca^2+ signaling activity was recorded in the absence of CPA.
TRPV4 sparklets were assessed as increases in fluorescence relative to baseline fluorescence, obtained by averaging 10 quiescent images prior to stimulation. […]

[2] = tested on: pulmonary endothelium of small PAs; experiment: Baseline endothelial Ca2+ signaling in en face small PAs after lung IR (Fluo-4 confocal imaging); format: cell-based, mice
Description: Murine lung IR model: A well-established left lung IRI model involving temporary in vivo ligation of the left hilum (pulmonary artery, vein, and airway) was used.^6 Briefly, mice were anesthetized with inhaled isoflurane, intubated, ventilated with room air at 150 strokes/min with a tidal volume of […] (Harvard Apparatus Co, South Natick, MA), and heparinized (20 U/kg: Hospira Inc, Lake Forest, IL). An anterolateral thoracotomy was performed through the fourth intercostal space to expose the left hilum. A 6-0 Prolene suture (Ethicon. Somerville, NJ) was passed around the left hilum, and the suture ends were passed through a 5-mm length of polyethylene (PE)-50 tubing. A surgical clip was used to fashion a Rummel tourniquet to provide temporary occlusion of the left hilar structures. The thoracotomy was closed, anesthesia was weaned, and analgesia was administered (intraperitoneal buprenorphine. 0.2 mg/kg). Animals recovered in their cages during the 1-hour ischemic period, after which they were anesthetized again and intubated, the Rummel tourniquet was removed, and the thoracotomy was closed. Animals were again extubated, recovered in their cage, and monitored during the 2-hour reperfusion period. Sham animals underwent the same surgical procedure except that application of the Rummel tourniquet to induce ischemia was omitted; thus, these animals were perfused for a total of 3 hours.
as §1, with “CPA. […]” for “CPA.”

[3] = ARC 10 μmol/L, small PAs of C57BL6/J mice

SMILES	lung IR-induced increase in TRPV4EC sparklet activity [1, 3]	lung IR-induced increase in baseline endothelial Ca2+ signaling activity [2, 3]	IR-induced increase in TRPV4EC sparklet activity ([1]; GSK219, CPA 20 μM present, small PAs after lung IR)	increase in baseline endothelial Ca2+ signals after lung IR ([2]; GSK219 100 nM, small PAs of control mice, 1 h ischemia + 2 h reperfusion)
Cc1ccc2c(c1)C=Cc1cc(C)ccc1C2c1cn(Cc2ccc(C(=O)Nc3nn[nH]n3)o2)c(=O)[nH]c1=S [ARC, AR-C 118925XX]	inhibited	abolished	–	–
O=C(NC1(c2ccccc2)CC1)c1c(CN2CCC(N3CCCCC3)CC2)c(-c2cccc(C(F)(F)F)c2)nc2cc(Br)ccc12 [GSK219, GSK2193874]	–	–	inhibited	completely abolished

Reference: patent US20260284082A1, “TARGETING THE PANX1-P2Y2R-TRPV4 PATHWAY TO TREAT LUNG ISCHEMIA-REPERFUSION INJURY” (UNIVERSITY OF VIRGINIA PATENT FOUNDATION, priority 2023, published 2026)
